# Measured values reported in patent EP0335545B2, “Pharmaceutical formulations for parenteral use” (UNIVERSITY OF FLORIDA, priority 1988, dated 1989).
# What was measured:
# [1] = Preparation of solid freeze-dried HPCD complexes: degree of incorporation; format: physicochemical; details: freeze-dried complex from 50% w/w HPCD (ASDS 5.1)
# Protocol: An excess of E2-CDS was added and the solution then was purged with helium. The resulting suspension was then sonicated for 30 minutes, filtered through a glass filter (ASTM 10-15M, Pyrex No. 36060) and freeze-dried overnight. Best results were obtained by hard-freezing the aqueous solution of the E2-CDS/HPCD complex for at least 10 hours before lyophilization. The degree of complex formation was determined by dissolving a small amount of the dry complex in methanol and then analyzing by high pressure liquid chromatography (HPLC).
# An excess of E2-CDS or other CDS was added to a 50% w/w solution of HPCD. The suspension was sonicated for 30 minutes, filtered through 0.45 µm PVDF membranes and freeze-dried. The degree of incorporation was determined either spectrophotometrically or by HPLC. In some cases, the effect of solubilizing agents on the degree of incorporation was examined. This involved adding small amounts of polyoxyethylene 20 cetyl ether (Brij), polyoxyethylene sorbitan monooleate (Tween 80) or ethanol to the aqueous solution prior to lyophilization.
# The retention time was 5.2 min. Other compounds were assayed spectrophotometrically.
# The solution was degassed and the suspension was sonicated for 30 minutes, after which it was filtered and the filtrate was lyophilized. The dried filtrate contained 65.6 mg testosterone propionate or 29.6 mg T-CDS1 per gram of cyclodextrin complex. Compounds were analyzed for decomposition by thin-layer chromatography and ultraviolet absorption.
# [2] = Phase-solubility experiments in aqueous HPCD at 25±1°C
# Protocol: For comparison, the solubilities of the drugs in water were also determined.
# • Wavelength: 245 nm • Column: Waters µBondapak CN, 3.9 mm (id.) x 30 cm • Mobile phase: acetonitrile, acetic acid, water (60:1:39) containing 0.1% 1-hexasulfonic acid, sodium salt • Flow rate: 2.00 mL/min.
# • Wavelength: 263 nm • Column: ASI C18, 10 µm, 3.9 mm (i.d.) x 30 cm • Mobile phase: acetonitrile, water (55:45) • Flow rate: 1.00 mL/min.
# • Wavelength: 241 nm • Column: Waters µBondapak CN, 3.9 mm (i.d.) x 30 cm • Mobile phase: acetonitrile, water (6:4) • Flow rate: 2.00 mL/min.
# • Wavelength: 280 nm • Column: ASI C18, 10 µm, 3.9 mm (i.d.) x 30 cm • Mobile phase: acetonitrile, water (55:45) • Flow rate: 2.00 mL/min.
# • Wavelength: 248 nm • Column: Fisher Resolvex C18, 4.6 mm (i.d.) x 25 cm • Mobile phase: acetonitrile, water (6:4) • Flow rate: 1.50 mL/min.
# • Wavelength: 248 nm • Column: Fisher Resolvex C18, 4.6 mm (i.d.) x 25 cm • Mobile phase: acetonitrile, water (7:3) • Flow rate: 2.00 mL/min.
# • Wavelength: 253 nm • Column: Waters µBondapak CN, 3.9 mm (i.d.) x 30 cm • Mobile phase: acetonitrile, […], water (60:1:39) containing 0.1% 1-hexanesulfonic acid, sodium salt • Flow rate: 2.00 mL/min.
# • Wavelength 308 nm • Column: Fisher Resolvex C18, 4.6 mm (i.d.) x 25 cm • Mobile phase: methanol, acetic acid, water (50:1:49) containing 0.1% 1-octanesulfonic acid, sodium salt • Flow rate: 2.00 mL/min.
# • Wavelength: 240 nm • Column: Fisher Resolvex C18, 4.6 mm (i.d.) x 25 cm • Mobile phase: acetonitrile, water (6:4) • Flow rate: 1.50 mL/min.
# • Wavelength: 240 nm • Column: Fisher Resolvex C18, 4.6 mm (i.d.) x 25 cm Mobile phase: acetonitrile, water (7:3) • Flow rate: 2.00 mL/min.
# • Wavelength: 241 nm • Column: Fisher Resolvex C18, 4.6 mm (i.d.) x 25 cm • Mobile phase: acetonitrile, water (7:3) • Flow rate: 2.00 mL/min.
# • Wavelength: 230 nm • Column: Waters µBondapak CN, 3.9 mm (i.d.) x 30 cm • Mobile phase: acetonitrile, water (35:65) • Flow rate: 2.00 mL/min.
# • Wavelength: 258 nm • Column: Fisher Resolvex C18, 4.6 mm (i.d.) x 25 cm • Mobile phase: acetonitrile, water (55:45) • Flow rate: 2.00 mL/min.
# • Wavelength: 325 nm • Column: Waters µBondapak C18, 10 µm, 3.9 mm (i.d.) x 30 cm • Mobile phase: acetonitrile, water (55:45) • Flow rate: 1.00 mL/min.
# physchem [3] = details: 50% w/w aqueous hpcd
# Protocol: An excess of E2-CDS was sonicated with an aqueous solution of the appropriate solubilizing agent for 30 minutes. The suspension was then centrifuged, filtered through 0.45 µm polyvinylidene difluoride (Millex-HV4, Millipore®) membranes and analyzed by HPLC. […] An estimation of the bulk equilibrium constant was obtained by correlating the millimolarity of E2-CDS solubilized and the millimolarity of the cyclodextrin added. This latter value was calculated using the average molecular weight of the isomeric mixture determined by mass spectroscopy. The solubilizing effect of a 50% w/w solution of HPCD was also examined for a series of steroids and dihydropyridines (CDS). These studies were carried out in a similar manner to those previously described.
# For the CDS, the wavelength monitored was 360 nm while for estrogen 220 nm was used.
# Separation was achieved on an Analytical Sciences, Inc. (ASI) 10 µm particle size, C18 reversed phase 30 cm x 3.9 mm i.d. analytical column. The flow rate was 1 mL/min, the compounds were detected at 360 nm and in all determinations the temperature was ambient. […] For the GABA-CDS1, a mobile phase consisting of 50:1:1:48 of the same components was required. […] Other compounds were assayed spectrophotometrically.
# physchem [4] = details: for solubility at 4 h: 50% aqueous hpcd
# Protocol: (§1) After equilibration in a 30.0±0.2°C water bath in the dark for up to 72 hours, aliquots of the mixtures were filtered through 0.45 Mm membrane filters, diluted and the drug concentration determined by HPLC or UV methods.
# [5] = Phase-solubility experiments in aqueous HPCD at 30.0±0.2°C (chlorambucil, lomustine, melphalan)
# Protocol: as §1
# [6] = Maximum concentrations of selected CDS in varying concentrations of selected cyclodextrins; format: physicochemical
# Protocol: In further testing, maximum concentrations of selected CDS in varying concentrations of selected cyclodextrins were determined. The concentration of E2-CDS (mg/mL) was as follows: […]
molecule,measurement,setting,value
Estradiol 17-Valerate,Amount of Drug in Dry Complex,[1],23.5 mg/g
CN(Cc1cnc2nc(N)nc(N)c2n1)c1ccc(C(=O)N[C@@H](CCC(=O)O)C(=O)O)cc1 [Methotrexate],solubility,"[2]; 50% w/w hpcd, pH 7.6",10000 µg/mL
same,solubility,[2]; water,45 µg/mL
"CN1C=CCC(C(=O)NCCc2ccc(OC(=O)C(C)(C)C)c(OC(=O)C(C)(C)C)c2)=C1 [DA-CDS, 1-methyl-3-{{N-{β-[3,4-bis-(pivalyloxy)phenyl]ethyl}-carbamoyl}}-1,4-dihydropyridine]",Amount of Drug in Dry Complex,[1],27 mg/g
same,solubility,physchem [3],16000 µg/mL
C#C[C@]1(O)CC[C@H]2[C@@H]3CCc4cc(O)ccc4[C@H]3CC[C@@]21C [17 α-Ethynylestradiol],solubility,[2]; 25% w/v hpcd,34500 µg/mL
same,solubility,[2]; 50% w/w hpcd,68200 µg/mL
same,solubility,[2]; water,8 µg/mL
C[C@]12CC[C@H]3[C@@H](CCC4=CC(=O)CC[C@@]43C)[C@@H]1CC[C@@H]2O [Testosterone],solubility,physchem [3],38000 µg/mL
CCC(=O)O[C@H]1CC[C@H]2[C@@H]3CCC4=CC(=O)CC[C@]4(C)[C@H]3CC[C@]12C [Testosterone 17-Propionate],Amount of Drug in Dry Complex,[1],65.6 mg/g
same,solubility,physchem [3],38000 µg/mL
N[C@@H](Cc1ccc(N(CCCl)CCCl)cc1)C(=O)O [Melphalan],solubility,physchem [4]; 1% aqueous hpcd,4160 µg/mL
same,solubility,physchem [4]; 2% aqueous hpcd,4300 µg/mL
same,solubility,physchem [4]; 3% aqueous hpcd,6240 µg/mL
same,solubility,physchem [4]; 4% aqueous hpcd,7140 µg/mL
same,solubility,physchem [4]; 5% aqueous hpcd,7200 µg/mL
same,solubility,physchem [4]; 7% aqueous hpcd,10500 µg/mL
same,solubility,physchem [4]; 10% aqueous hpcd,13400 µg/mL
same,solubility,physchem [4]; 15% aqueous hpcd,17600 µg/mL
same,solubility,physchem [4]; 20% aqueous hpcd,24800 µg/mL
same,solubility,physchem [4]; 25% aqueous hpcd,31400 µg/mL
same,solubility at 4 h,physchem [4],~21900 µg/mL
same,solubility,physchem [4]; water,1260 µg/mL
same,solubility,physchem [4]; water (0% hpcd),1260 µg/mL
C[C@]12CC[C@@H]3c4ccc(O)cc4CC[C@H]3[C@@H]1C[C@@H](O)[C@@H]2O [Estriol],solubility,physchem [3],40000 µg/mL
CC1=C(/C=C/C(C)=C/C=C/C(C)=C/CO)C(C)(C)CCC1 [All-trans-Retinol],Increase in Solubility (HPCD/water),[2],"∼4,600"
same,solubility,[2]; 50% w/w hpcd,4600 µg/mL
same,solubility,[2]; water,1 µg/mL
C[C@@H]1C[C@H]2[C@@H]3CCC4=CC(=O)C=C[C@]4(C)[C@@]3(F)[C@@H](O)C[C@]2(C)[C@@]1(O)C(=O)CO [Dexamethasone],solubility,[2]; 25% w/v hpcd,24200 µg/mL
same,solubility,[2]; 50% w/w hpcd,44300 µg/mL
same,solubility,[2]; water,8 µg/mL
O=NN(CCCl)C(=O)NC1CCCCC1 [Lomustine],solubility,[5]; 1% w/w aqueous hpcd,380 µg/mL
same,solubility,[5]; 5% w/w aqueous hpcd,1680 µg/mL
same,solubility,[5]; 10% w/w aqueous hpcd,3330 µg/mL
same,solubility,[5]; 15% w/w aqueous hpcd,6260 µg/mL
same,solubility,[5]; 20% w/v aqueous hpcd,8440 µg/mL
same,solubility,[5]; 20% w/w aqueous hpcd,8440 µg/mL
same,increase: water/25% HPCD,[5]; 25% HPCD versus water,49.44
same,solubility,[5]; 25% w/v aqueous hpcd,8900 µg/mL
same,solubility,[5]; 25% w/w aqueous hpcd,8900 µg/mL
same,solubility at 4 h,[5]; 50% w/w aqueous hpcd,~12000 µg/mL
same,degradation during the solubility experiments,"[5]; aqueous HPCD, 30°",Some degradation occurred
same,solubility,[5]; water,180 µg/mL
same,solubility,[5]; water (0% hpcd),180 µg/mL
C#C[C@]1(OC(C)=O)CC[C@H]2[C@@H]3CCC4=CC(=O)CC[C@@H]4[C@H]3CC[C@@]21C [Norethindrone acetate],Increase in Solubility (HPCD/water),[2],"∼97,500"
same,solubility,[2]; 25% w/v hpcd,9410 µg/mL
same,solubility,[2]; 50% w/w hpcd,19500 µg/mL
same,solubility,[2]; water,0.2 µg/mL
O=C1NC(=O)C(c2ccccc2)(c2ccccc2)N1 [Phenytoin],Increase in Solubility (HPCD/water),[2],∼450
same,solubility,[2]; 50% w/w hpcd,9300 µg/mL
same,solubility,[2]; water,20 µg/mL
"1-methyl-3-N-[3-(benzyloxycarbonyl)propyl]-carbamoyl-1,4-dihydropyridine [GABA-CDS1]",Amount of Drug in Dry Complex,[1],160 mg/g
COc1ccc2c(c1)CC[C@@H]1[C@@H]2CC[C@]2(C)[C@@H](O)CC[C@@H]12 [Estradiol 3-Methyl Ether],solubility,physchem [3],30000 µg/mL
O=C(O)CCCc1ccc(N(CCCl)CCCl)cc1 [Chlorambucil],solubility at 3 h,physchem [4]; 1% aqueous hpcd,740 µg/mL
same,solubility at 84 h,physchem [4]; 1% aqueous hpcd,550 µg/mL
same,solubility at 3 h,physchem [4]; 2% aqueous hpcd,1480 µg/mL
same,solubility at 84 h,physchem [4]; 2% aqueous hpcd,840 µg/mL
same,solubility at 3 h,physchem [4]; 3% aqueous hpcd,2370 µg/mL
same,solubility at 84 h,physchem [4]; 3% aqueous hpcd,680 µg/mL
same,solubility at 3 h,physchem [4]; 4% aqueous hpcd,3220 µg/mL
same,solubility at 84 h,physchem [4]; 4% aqueous hpcd,1500 µg/mL
same,solubility at 3 h,physchem [4]; 5% aqueous hpcd,1460 µg/mL
same,solubility at 84 h,physchem [4]; 5% aqueous hpcd,1800 µg/mL
same,solubility at 84 h,physchem [4]; 7% aqueous hpcd,3760 µg/mL
same,solubility at 3 h,physchem [4]; 10% aqueous hpcd,4960 µg/mL
same,solubility at 84 h,physchem [4]; 10% aqueous hpcd,5200 µg/mL
same,solubility at 3 h,physchem [4]; 15% aqueous hpcd,6360 µg/mL
same,solubility at 84 h,physchem [4]; 15% aqueous hpcd,7600 µg/mL
same,solubility,physchem [4]; 20% aqueous hpcd,13100 µg/mL
same,solubility at 3 h,physchem [4]; 20% aqueous hpcd,8490 µg/mL
same,solubility at 84 h,physchem [4]; 20% aqueous hpcd,13100 µg/mL
same,solubility,physchem [4]; 25% aqueous hpcd,18400 µg/mL
same,solubility at 3 h,physchem [4]; 25% aqueous hpcd,8850 µg/mL
same,solubility at 84 h,physchem [4]; 25% aqueous hpcd,18400 µg/mL
same,solubility at 4 h,physchem [4],~30000 µg/mL
same,solubility at 3 h,physchem [4]; aqueous 7% hpcd,2710 µg/mL
same,solubility,physchem [4]; water,410 µg/mL
same,solubility at 3 h,physchem [4]; water (0% hpcd),10 µg/mL
same,solubility at 84 h,physchem [4]; water (0% hpcd),410 µg/mL
"17β-{[(1-methyl-1,4-dihydropyridin-3-yl)carbonyl]oxy}-19-norpregn-4-en-20-yn-3-one [norethindrone-CDS]",concentration of the norethindrone-CDS,[6]; 40% hpcd,7.13 mg/g
same,concentration of the norethindrone-CDS,[6]; 40% hpgcd,15.9 mg/g
same,Amount of Drug in Dry Complex,[1],0.6 mg/g
C#C[C@]1(O)CC[C@H]2[C@@H]3CCc4cc(OC)ccc4[C@H]3CC[C@@]21C [Ethynylestradiol 3-methyl ether],Increase in Solubility (HPCD/water),[2],"∼13,000"
same,solubility,[2]; 25% w/v hpcd,7130 µg/mL
same,solubility,[2]; 50% w/w hpcd,13300 µg/mL
same,solubility,[2]; water,1 µg/mL
"1-methyl-3-{[2-(9-guanylmethoxy)ethoxy]carbonyl}-1,4-dihydropyridine [ACV-CDS]",Amount of Drug in Dry Complex,[1],25 mg/g
CN1CCN=C(c2ccccc2)c2cc(Cl)ccc21 [Medazepam],solubility,"[2]; 50% w/w hpcd, pH 7.5",8300 µg/mL
same,solubility,[2]; water,10 µg/mL
